Molecular target: T1, glycosyltransferase in crude enzyme liquid from pink carnation petals (Dianthus caryophyllus, UniProt E3W9M2)
T1 construct: Thus, a crude enzyme liquid was obtained; from tissue; host or cells: pink petals of carnation, variety Beam Cherry (ammonium sulfate precipitate, desalted)
T1 sequence (E3W9M2 31-502): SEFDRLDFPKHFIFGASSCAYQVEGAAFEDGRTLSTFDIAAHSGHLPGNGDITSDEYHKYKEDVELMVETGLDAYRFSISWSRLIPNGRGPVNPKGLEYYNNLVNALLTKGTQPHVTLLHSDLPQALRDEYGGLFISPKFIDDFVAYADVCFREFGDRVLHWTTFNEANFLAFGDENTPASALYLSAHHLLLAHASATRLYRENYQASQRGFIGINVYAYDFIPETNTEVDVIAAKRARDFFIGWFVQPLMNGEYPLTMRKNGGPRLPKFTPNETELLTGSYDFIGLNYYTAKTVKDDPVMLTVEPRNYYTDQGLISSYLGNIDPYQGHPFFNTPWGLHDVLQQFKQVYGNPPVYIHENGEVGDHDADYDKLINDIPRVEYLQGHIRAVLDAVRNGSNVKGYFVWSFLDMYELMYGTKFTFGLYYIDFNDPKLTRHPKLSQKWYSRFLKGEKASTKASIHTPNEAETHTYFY
Experiment: Detection of glycosyl transfer reaction with carnation petal crude enzyme liquid (HPLC)
Type: biochemical
Settings: pH 5.6, 30° C.
Protocol: Pink petals of a carnation (variety: “Beam Cherry”) were ground into a powder in liquid nitrogen using a mortar and a pestle. The obtained powder was added in a stepwise manner to a 50 mM potassium phosphate buffer (pH 7.2) and dissolved therein via stirring to prevent freezing. Then, an insoluble fraction was removed by centrifugation. A saturate ammonium sulfate solution was added to the obtained supernatant so as to result in a concentration of 80%. The mixture was left on ice for 5 minutes. The precipitated protein was collected by centrifugation. A 10 mM potassium phosphate buffer was added thereto for complete dissolution. The obtained solution was applied to a Sephadex G-25 gelfiltration support (GE Healthcare) for desalting. Thus, a crude enzyme liquid was obtained. […]
Glycosyltransferase activity was examined using a crude enzyme extracted from pink petals of a carnation (variety: “Beam Cherry”) or petals of a delphinium (variety: “marine blue”) in the manner described in Example 1. […] Then, the supernatant was analyzed by HPLC. […]

Structure (SMILES)	Function as sugar donor (generation of cyanidin 3,5-O-β-diglucoside from cyanidin 3-glucoside) (carnation crude enzyme liquid, 40 minutes)	Recognition as sugar donor by carnation glycosylation enzyme (carnation crude enzyme, cyanidin 3-O-β-glucoside 200 μM, sugar donor 1 mM, 15 minutes)
COc1cc(C(=O)OC2OC(CO)C(O)C(O)C2O)ccc1O (centres unmarked)	functions as a sugar donor	
O=C(OC1OC(CO)C(O)C(O)C1O)c1ccc(O)cc1 (stereo not drawn) [1-O-β-p-hydroxybenzoyl glucose]		recognize 1-O-β-p-hydroxybenzoyl glucose as a sugar donor

Source: US8722868B2, “Glycosyltransferase, novel glycosyltransferase gene, and novel sugar donor compound” (National University Corporation Tokyo University of …, priority 2009, dated 2014)
